# Where two headings read alike, the source gives them in different places.
# Columns and labels:
# Alternaria solani = experiment: In vivo preventive Alternaria test (tomatoes), Example H; conditions: 72 h, 100 ppm of active ingredient, preventive spray, evaluated 3 days after inoculation, read-out: efficacy
# Botrytis cinerea [1] = experiment: In vivo preventive test on Botrytis cinerea (grey mould) on gherkin, Examples B, Q1 and R2
# Septoria tritici [2] = experiment: In vitro test for the calculation of the ED50-value with microorganisms, Example Q4: Septoria tritici; type: cell-based; conditions: liquid culture, spore suspension, 4 to 7 days incubation, spectrometric measurement of mycelium growth
# Phakopsora pachyrhizi = experiment: In vivo preventive Phakopsora test (soybeans), Example I; conditions: 168 h, 100 ppm of active ingredient, preventive spray, evaluated 7 days after inoculation, read-out: efficacy
# Leptosphaeria nodorum [3] = experiment: In vitro test for the calculation of the ED50-value with microorganisms, Example Q4: Leptosphaeria nodorum; type: cell-based; conditions: liquid culture, spore suspension, 4 to 7 days incubation, spectrometric measurement of mycelium growth
# Pyricularia oryzae = experiment: whole plant or invertebrate; type: in vivo; conditions: 192 h, read-out: efficacy
# Septoria tritici [4] = experiment: In vivo preventive test on Septoria tritici (leaf spot on wheat), Examples E, Q3 and R5; conditions: Zymoseptoria tritici, 576 h
# Leptosphaeria nodorum [5] = experiment: In vivo preventive Leptosphaeria nodorum test (wheat), Example N; conditions: Parastagonospora nodorum, 192 h, 500 ppm of active ingredient, preventive spray, evaluated 8 days after inoculation, read-out: efficacy
# Description: After the spray coating has been dried, the plants are sprayed with a spore suspension of Leptosphaeria nodorum.
# Pyrenophora teres = experiment: In vivo preventive test on Pyrenophora teres (net blotch on barley), Examples D, Q2 and R4; conditions: Pyrenophora teres, 336 h
# Sphaerotheca fuliginea = experiment: In vivo preventive test on Sphaerotheca fuliginea (powdery mildew on cucurbits), Examples F and R6; conditions: Podosphaera fuliginea, 360 h, preventive spray, evaluated 15 days after inoculation
# Venturia inaequalis = experiment: In vivo preventive Venturia test (apples), Example J; conditions: 240 h, read-out: efficacy
# Method: After the spray coating has dried on, the plants are inoculated with an aqueous conidia suspension of the causal agent of apple scab (Venturia inaequalis) and then remain for 1 day in an incubation cabinet at approximately 20° C. and a relative atmospheric humidity of 100%.
# The plants are then placed in a greenhouse at approximately 21° C. and a relative atmospheric humidity of approximately 90%.
# The test is evaluated 10 days after the inoculation.
# [6] = Measurement of LogP values by HPLC on reversed phase columns (EEC directive 79/831 Annex V.A8); type: physicochemical; conditions: method [a]: LC-UV, acidic range, 0.1% formic acid in water and acetonitrile as eluent; Table 1
# Method: Measurement of Log P values was performed as outlined above.
# Puccinia recondita = experiment: In vivo preventive test on Puccinia recondita (brown rust on wheat), Examples C and R3; conditions: Puccinia recondita, 264 h, preventive spray, evaluated 11 days after inoculation
# Fusarium culmorum = experiment: In vitro test for the calculation of the ED50-value with microorganisms, Example Q4: Fusarium culmorum; type: cell-based; conditions: liquid culture, spore suspension, 4 to 7 days incubation, spectrometric measurement of mycelium growth
# Method: • Solvent: Dimethyl sulfoxide • Culture medium: 14.6 g anhydrous D-glucose (VWR), 7.1 g Mycological Peptone (Oxoid), 1.4 g granulated Yeast Extract (Merck), QSP liter • Inoculum: Spore suspension
# Fungicides were solubilized in DMSO and the solution used to prepare the required range of concentrations. The final concentration of DMSO used in the assay was ≤1%.
# A spore suspension was prepared and diluted to the desired spore density.
# Fungicides were evaluated for their ability to inhibit spore germination and mycelium growth in liquid culture assay. The compounds were added in the desired concentration to the culture medium with spores. After 4 to 7 days incubation, fungi-toxicity of compounds was determined by spectrometric measurement of mycelium growth. Inhibition of fungal growth was determined by comparing the absorbance values in wells containing the fungicides with the absorbance in control wells without fungicides.
# Uromyces appendiculatus = experiment: In vivo preventive test on Uromyces appendiculatus (bean rust), Examples G and R7; conditions: 264 h, preventive spray, evaluated 11 days after inoculation
# [7] = system: Blumeria graminis fsp. hordei; experiment: In vivo preventive Blumeria test (barley), Example K; conditions: 168 h, 500 ppm of active ingredient, preventive spray, evaluated 7 days after inoculation, read-out: efficacy
# Description: After the spray coating has been dried, the plants are dusted with spores of Blumeria graminis fsp. hordei.
# Botrytis cinerea [8] = experiment: In vitro test for the calculation of the ED50-value with microorganisms, Example Q4: Botrytis cinerea; type: cell-based; conditions: liquid culture, spore suspension, 4 to 7 days incubation, spectrometric measurement of mycelium growth
smiles,measurement,setting,value
OC(Cc1ccc(Cl)cc1F)(Cn1cncc1Br)C1(Cl)CC1 (centres unmarked) [Example I-30],pest or weed control at 100 ppm,Alternaria solani,90 to 100%
same,pest or weed control at 500 ppm,"Botrytis cinerea [1]; Botrytis cinerea, 500 ppm of active ingredient, preventive spray, evaluated 4 to 5 days after inoculation, read-out: efficacy",90 to 100%
same,pest or weed control at 100 ppm,"Botrytis cinerea [1]; Botrytis cinerea, Example Q1, rate of application 100 ppm, read-out: Efficacy in %",100%
same,pest or weed control at 500 ppm,"Botrytis cinerea [1]; Botrytis cinerea, Example Q1, rate of application 500 ppm, read-out: Efficacy in %",100%
same,Efficacy in %,"Botrytis cinerea [1]; Example R2, rate of application 100 ppm",100%
same,Efficacy in %,"Botrytis cinerea [1]; Example R2, rate of application 500 ppm",100%
same,Septoria tritici ED50 value in ppm,Septoria tritici [2],<0.006 ppm
same,pest or weed control at 100 ppm,Phakopsora pachyrhizi,90 to 100%
same,Leptosphaeria nodorum ED50 value in ppm,Leptosphaeria nodorum [3],0.01 ppm
same,pest or weed control at 500 ppm,Pyricularia oryzae,90 to 100%
same,pest or weed control at 500 ppm,"Septoria tritici [4]; 500 ppm of active ingredient, wheat, preventive spray, evaluated 24 days after inoculation, read-out: efficacy",90 to 100%
same,pest or weed control at 100 ppm,"Septoria tritici [4]; Example Q3, rate of application 100 ppm, wheat, read-out: Efficacy in %",94%
same,pest or weed control at 500 ppm,"Septoria tritici [4]; Example Q3, rate of application 500 ppm, wheat, read-out: Efficacy in %",98%
same,pest or weed control at 100 ppm,"Septoria tritici [4]; Example R5, wheat, preventive spray, 100 ppm, evaluated 24 days after inoculation, read-out: Efficacy in %",94%
same,pest or weed control at 500 ppm,"Septoria tritici [4]; Example R5, wheat, preventive spray, 500 ppm, evaluated 24 days after inoculation, read-out: Efficacy in %",98%
same,pest or weed control at 500 ppm,Leptosphaeria nodorum [5],90 to 100%
same,pest or weed control at 500 ppm,"Pyrenophora teres; 500 ppm of active ingredient, preventive spray, evaluated 14 days after inoculation, read-out: efficacy",90 to 100%
same,pest or weed control at 100 ppm,"Pyrenophora teres; Example Q2, rate of application 100 ppm, read-out: Efficacy in %",91%
same,pest or weed control at 500 ppm,"Pyrenophora teres; Example Q2, rate of application 500 ppm, read-out: Efficacy in %",94%
same,pest or weed control at 100 ppm,"Pyrenophora teres; Example R4, rate of application 100 ppm, read-out: Efficacy in %",81%
same,pest or weed control at 500 ppm,"Pyrenophora teres; Example R4, rate of application 500 ppm, read-out: Efficacy in %",94%
same,pest or weed control at 500 ppm,"Sphaerotheca fuliginea; 500 ppm of active ingredient, gherkin, read-out: efficacy",90 to 100%
same,pest or weed control at 100 ppm,"Sphaerotheca fuliginea; Example R6, gherkin, 100 ppm, read-out: Efficacy in %",100%
same,pest or weed control at 500 ppm,"Sphaerotheca fuliginea; Example R6, gherkin, 500 ppm, read-out: Efficacy in %",100%
same,pest or weed control at 100 ppm,Venturia inaequalis,90 to 100%
same,chromatographic logP,[6],2.55
same,pest or weed control at 500 ppm,"Puccinia recondita; 500 ppm of active ingredient, wheat, read-out: efficacy",90 to 100%
same,pest or weed control at 100 ppm,"Puccinia recondita; Example R3, wheat, 100 ppm, read-out: Efficacy in %",88%
same,pest or weed control at 500 ppm,"Puccinia recondita; Example R3, wheat, 500 ppm, read-out: Efficacy in %",94%
same,Fusarium culmorum ED50 value in ppm,Fusarium culmorum,0.01 ppm
same,pest or weed control at 500 ppm,"Uromyces appendiculatus; 500 ppm of active ingredient, bean, read-out: efficacy",90 to 100%
same,pest or weed control at 100 ppm,"Uromyces appendiculatus; Example R7, bean, 100 ppm, read-out: Efficacy in %",88%
same,pest or weed control at 500 ppm,"Uromyces appendiculatus; Example R7, bean, 500 ppm, read-out: Efficacy in %",100%
same,pest or weed control at 500 ppm,[7],90 to 100%
same,Botrytis cinerea ED50 value in ppm,Botrytis cinerea [8],0.08 ppm
